Data published in patent US20140220154A1, “METHOD OF TREATING PATHOLOGIC HETEROTOPIC OSSIFICATION” (The United States of America, as represented by the …, priority 2011, published 2014).
Entries after “also recorded” stand apart in the source; their conditions may differ.

How the values were obtained:
[1] = tested on: bone marrow mesenchymal cells (BMMC); experiment: Osteoblastic differentiation of BMMC after removal of Gαs (Von Kossa, Alizarin red staining); format: cell-based, mouse; settings: osteogenic media 7 days
Experimental: FIG. 13: Removal of Gαs from bone marrow mesenchymal cells (BMMC) promotes osteoblastic differentiation, which is inhibited by Hh antagonist, GANT-58 treatment in a dose-dependent manner. BMMCs were isolated from Gαsflox/flox mice and infected with a Cre-containing adenovirus (ad-Cre) to remove Gαs or GFP-containing adenovirus (Ad-GFP) control. Cells were grown to confluence and placed in osteogenic media for 7 days. […] No effect of GANT-58 observed in Ad-GFP treated cells (panels c and e compared to a).
HO requires an inappropriate increase in bone forming cells (osteoblasts) The role of Gαs in promoting osteoblastic differentiation was tested. Bone marrow mesenchymal cells (BMMC) (also called mesenchymal stem cells) were isolated from Gαs^flox/flox mice. BMMC were isolated by flushing the bone marrow cavity of 6 week old mice and plating cells in Alpha-MEM, 20% FBS, 100 U/mL penicillin, 100 μg/mL streptomycin, 2 mM glutamine. Prior to reaching confluence cells were treated with a Cre- or GFP-containing adenovirus. Upon reaching confluence cells were switched to osteogenic media (DMEM, 10% lot-selected FBS, 100 U/mL penicillin, […] streptomycin, 2 mM glutamine, 10^-4M L-ascorbic acid 2-phosphate and 10 mM α-glycerol phosphate). These cells were infected with a Cre-containing adenovirus to remove Gαs and cultured under conditions that favor osteogenic differentiation. […]

[2] = tested on: Prx1-cre+; Gαs^flox/− mice; experiment: HO formation in vivo in Prx1-cre+; Gαs^flox/− pups from treated pregnant females (Alizarin Red-Alcian Blue staining); design: species or system mouse
Experimental: FIG. 12: ATO inhibits HO formation in Prx1-cre+; Gαs^flox/− mice. Pregnant females were injected with either […] ATO or vehicle at E13.5, E15.5 and E17.5 and embryos were collected at E18.5. An Alizarin Red-Alcian Blue skeletal prep was performed to assay for the presence of HO between the digits.
Embryos were skinned and placed in 100% EtOH overnight to fix. Embryos were then placed in staining solution for 2 days (50 mL staining solution=2.5 mL 0.3% Alcian Blue, 2.5 mL 0.1% Alizarin Red, 2.5 mL 100% glacial acetic acid, 42.5 mL 70% EtOH). Embryos were rinsed with water, then placed in 1% KOH until destained, and finally in 80% glycerol for storage.
Inhibitors of Hh signaling were tested for an ability to inhibit the formation of HO in vivo. Matings were established between Prx1-cre+; Gαs^flox/− male and Gαs^flox/flox female mice. Pregnant females at gestational days E13.5, E15.5 and E17.5 were injected intraperitoneally with 5 mg/kg ATO. Pregnant mice are first weighed and then injected with care so as to avoid injection into uteri. Mice were sacrificed at E18.5, pups were collected, and stained for bone formation by Alizarin Red-Alcian Blue staining. Prx1-cre+; Gαs^flox/− pups from mice injected with vehicle control produced HO as evidenced by enhanced red staining in soft tissues. […]

[3] = tested on: Hh pathway activation (Ptch1, Gli1, HIP); experiment: Limb culture of E14.5 limbs with qRT-PCR for markers of Hh pathway activation; format: cell-based; settings: Prx1-cre+; Gαs^flox/− mouse limbs isolated at E14.5, cultured in vitro 4 days, 5 μM ATO vs vehicle
Experimental: FIG. 8: ATO inhibits elevated Hh signaling in Prx1-cre+; Gαs^flox/− mouse limbs. Control and Prx1-cre+; Gαs^flox/− mouse limbs were isolated at E14.5 and cultured in vitro for 4 days in the BGJB media containing vehicle or 5 μM ATO. Limbs were then collected, RNA isolated and qRT-PCR was performed for markers of Hh pathway activation (Ptch1, Gli1, HIP). In the absence of ATO, expression of these markers was elevated relative to control (6-fold, 5-fold and 17-fold, respectively).
The formation of HO indicated inappropriate upregulation of a pro-osteogenic pathway (e.g. BMP, Wnt, and/or hedgehog) outside the skeleton. As Gαs is a physiologically important activator of protein kinase A (PKA) and PKA is a potent inhibitor of Hedghehog (Hh) signaling (Jiang, et al., 1995, Cell 80, 563-572), loss of Gαs is likely associated with an upregulation of Hh that was driving HO formation. Accordingly, Hh signaling would be elevated prior to HO formation and overlap in its tissue expression. Quantitative reverse transcriptase polymerase chain reaction (qRT-PCR) was performed on RNA isolated from control and Prx1-cre+; Gαs^flox/− mutant limb tissue at E14.5, prior to HO formation. The following primers were used for qRT-PCR: […]
Relative expression was quantified using the […] method (Livak, et al., 2001, Methods 25, 402-08). […]

c1cc(-c2sc(-c3ccncc3)c(-c3ccncc3)c2-c2ccncc2)ccn1 [GANT-58]
tissue mineralization, Von Kossa staining ([1]; Ad-Cre infected BMMC (Gαs removed)): inhibited by GANT-58 in a dose-dependent manner
effect on mineralization in control cells, Von Kossa staining ([1]; Ad-GFP treated BMMC (control)): No effect

arsenic trioxide [ATO]
HO in forelimb and hind limb, Alizarin Red-Alcian Blue staining ([2]; pregnant females injected intraperitoneally with 5 mg/kg ATO at E13.5, E15.5 and E17.5, pups collected at E18.5, vs vehicle control): significant reduction in HO
levels of HO in forelimbs and hind limbs, Alizarin Red-Alcian Blue skeletal prep ([2]; pregnant females injected with 5 μg/kg ATO at E13.5, E15.5 and E17.5, embryos collected at E18.5, relative to vehicle): reduced levels of HO
expression of markers of Hh pathway activation (Ptch1, Gli1, HIP) by qRT-PCR [3]: dramatic reduction in the Hh pathway activation; also recorded: significantly reduced
